{"source": "patent US20250255845A1", "about": "“USE OF INTERLEUKIN (IL)-17A INHIBITOR IN PREPARATION OF MEDICAMENT FOR TREATING INFLAMMATORY DISEASE” (Xiangnan University, priority 2024, published 2025)", "key": {"[1]": {"test_system": "IMQ-induced psoriasis mice", "experiment": "Dorsal skin lesions of IMQ-induced psoriasis mice", "type": "in vivo, Balb/c mice", "experimental": "Balb/c mice (female, 6-8 weeks, 20+2 g), with certificate number [SCXK (Xiang) 2021-0002], were purchased from Hunan SJA Laboratory Animal (Changsha, China). All mice were housed in an specific pathogen free (SPF)-grade animal room with a 12 h light/12 h dark cycle, and experiments were started after the mice were acclimated for one week. Next, 96 mice were randomly divided into 12 groups (8 mice/group), including Control group, Control solvent (white vaseline) group, IMQ group, IMQ solvent (white vaseline) group, preventive administration of positive medicament Clo group (IMQ+Clo 55 mg), therapeutic administration of positive medicament group (IMQ+Clo (A) 55 mg), preventive administration of Tan low-dose group (IMQ+Tan 40 μg/cm^2), medium-dose group (IMQ+Tan160 μg/cm^2), and high-dose group (IMQ+Tan 640 μg/cm^2), and therapeutic administration of Tan low-dose group (IMQ+Tan (A) 40 μg/cm^2), medium-dose group (IMQ+Tan (A) 160 μg/cm^2), and high-dose group (IMQ+Tan (A) 640 μg/cm^2). After the mice were anesthetized, a 2 cm×3 cm area on the back was selected for hair removal. Modeling began 48 h after hair removal, and all modeling mice were applied with 65 mg (55 mg on the back and 5 mg on each ear) of IMQ cream every morning for 10 d. In the Tan preventive administration groups, the low-dose group (40 μg/cm^2), the medium-dose group (160 μg/cm^2), and the high-dose group (640 μg/cm^2) were topically administered to the back and ears every afternoon starting from the first day of modeling for 10 d. In the Tan therapeutic administration groups, the low-dose group (40 μg/cm^2), the medium-dose group (160 μg/cm^2), and the high-dose group (640 μg/cm^2) were topically administered to the back and ears every afternoon starting from the 3rd day of modeling for 10 d. The mice in the preventive positive medicament group received Clo (55 mg/mouse, 45 mg on the back, 5 mg on each ear) treatment from the first day of modeling, and the mice in the therapeutic positive medicament group received Clo (55 mg/mouse, 45 mg on the back, 5 mg on each ear) treatment from the third day of modeling."}, "IL-6 mRNA": {"test_system": "IL-6 mRNA", "experiment": "Real-time fluorescence quantitative PCR, LPS-induced IL-6 mRNA in RAW264.7 cells", "type": "cell-based, mouse", "experimental": "(§1) RAW264.7 cell culture: mouse mononuclear macrophages (RAW264.7, ATCC) are cultured in a complete medium containing 10% fetal bovine serum (FBS), 1% double antibodies (penicillin and streptomycin), and 89% DMEM at 37° C. and 5% CO2. In this experiment, RAW264.7 cells from passages 3 to 8 are used for related test.\n(§2) LPS (100 ng/ml) is added for stimulation, with or without Tan, and the cell supernatant is collected to detect the contents of NO, IL-23, IL-17A, TNF-α, and IL-6 in the cell supernatant. The cell lysate is collected and the protein expressions (STAT3, p-STAT3 (Ser727), and p-STAT3 (Tyr705)) are detected by Western blot. Total cell RNA is extracted and real-time fluorescence quantitative polymerase chain reaction (PCR) is conducted to detect the expression levels of IL-23, IL-17A, TNF-α, and IL-6 mRNA.\nRAW264.7 cells were inoculated into 6-well plate and the cell density was adjusted to 5.0×10^6 cells/well. […] The fluorescence intensity of each sample was detected according to the instructions of the real-time fluorescence quantitative PCR kit and specific primers (Table 1) (cycle conditions: enzyme activation 95° C. for 3 min, 1 cycle; denaturation 95° C. for 15 s, annealing/extension 60° C. for 1 min, 40 cycles). The mRNA expression level of each group was normalized with the GAPDH expression level, and the relative expression of mRNA was calculated using the 2^−ΔΔCt method."}, "p-STAT3": {"test_system": "p-STAT3", "experiment": "Immunohistochemistry of p-STAT3 in dorsal skin of IMQ-induced psoriasis mice", "type": "in vivo, Balb/c mice", "settings": "preventive and therapeutic administration groups; dose-dependent", "experimental": "Balb/c mice (female, 6-8 weeks, 20+2 g), with certificate number [SCXK (Xiang) 2021-0002], were purchased from Hunan SJA Laboratory Animal (Changsha, China). All mice were housed in an specific pathogen free (SPF)-grade animal room with a 12 h light/12 h dark cycle, and experiments were started after the mice were acclimated for one week. Next, 96 mice were randomly divided into 12 groups (8 mice/group), including Control group, Control solvent (white vaseline) group, IMQ group, IMQ solvent (white vaseline) group, preventive administration of positive medicament Clo group (IMQ+Clo 55 mg), therapeutic administration of positive medicament group (IMQ+Clo (A) 55 mg), preventive administration of Tan low-dose group (IMQ+Tan 40 μg/cm^2), medium-dose group (IMQ+Tan160 μg/cm^2), and high-dose group (IMQ+Tan 640 μg/cm^2), and therapeutic administration of Tan low-dose group (IMQ+Tan (A) 40 μg/cm^2), medium-dose group (IMQ+Tan (A) 160 μg/cm^2), and high-dose group (IMQ+Tan (A) 640 μg/cm^2). After the mice were anesthetized, a 2 cm×3 cm area on the back was selected for hair removal. Modeling began 48 h after hair removal, and all modeling mice were applied with 65 mg (55 mg on the back and 5 mg on each ear) of IMQ cream every morning for 10 d. […]"}, "IL-6": {"test_system": "IL-6", "experiment": "ELISA of LPS-induced IL-6 secretion in RAW264.7 cells", "type": "cell-based, mouse", "experimental": "as §1, §2\nRAW264.7 cells in the logarithmic growth phase were inoculated into a 6-well plate and the cell density was adjusted to 5.0×10^5 cells/well. After culturing for 24 h, the cells were stably adhered to the plate. The original medium was removed and different concentrations (5, 10, 20, 40 μM) of Tan were added to allow pretreatment for 1 h. […] The OD450 nm value of the cell supernatant was detected according to the instructions of the TNF-α and IL-6 ELISA kits, and the content of pro-inflammatory factors (TNF-α and IL-6) in the cell supernatant was calculated."}}, "data": [{"smiles": "COc1ccc(-c2cc(=O)c3c(OC)c(OC)c(OC)c(OC)c3o2)cc1", "note": "[Tan, tangeretin]", "values": [{"measurement": "improvement of dorsal skin lesions compared with positive control Clo", "setting": "[1]; high-dose (640 μg/cm^2) preventive and therapeutic groups", "result": "comparable to that of the positive control Clo"}, {"measurement": "erythema and scaling of dorsal skin", "setting": "[1]; preventive and therapeutic topical administration, 40/160/640 μg/cm^2, vs IMQ group, dose-dependent", "result": "significant reduction in erythema and scaling"}, {"measurement": "scales and erythema on the dorsal skin", "setting": "[1]; preventive group (from first day of modeling)", "result": "almost disappeared"}, {"measurement": "back scales after treatment", "setting": "[1]; therapeutic group (from 3rd day of modeling)", "result": "only a minimal amount of back scales remained"}, {"measurement": "inhibitory effect on IL-6 mRNA compared with positive control Clo", "setting": "IL-6 mRNA; 40 μM", "result": "comparable to that of the positive control Clo"}, {"measurement": "relative expression level of IL-6 mRNA", "setting": "IL-6 mRNA; 5-40 μM, 24 h, vs LPS, P<0.001, dose-dependent", "result": "significantly decreased"}, {"measurement": "expression level of p-STAT3 in the dorsal skin", "setting": "p-STAT3", "result": "significantly reduced"}, {"measurement": "inhibitory effect on IL-6 secretion compared with positive control Clo", "setting": "IL-6; 40 μM", "result": "comparable to that of the positive control"}, {"measurement": "IL-6 level in the cell supernatant", "setting": "IL-6; 5-40 μM, 24 h, vs LPS group, P<0.001, dose-dependent", "result": "significantly decreased"}]}]}
